Type in all cases: physicochemical
Data set [1] can be described thus: Bulk density and tapped density (Ph.Eur. 2.9.15, Erweka SVM 22 volumeter, 1250 taps). As to conditions: mean of three determinations; for Stampfdichte: after 1250 taps. As for the experimental part:
Sofern nichts anderes angegeben ist, erfolgt die Bestimmung der Schüttdichte und Stampfdichte nach Ph.Eur. 5.0 General Notices 2.9.15.
(§1) Insbesondere wurde zur Bestimmung der Schüttdichte jeweils etwa 250 ml Substanz, möglichst erschütterungsfrei in einen 250 ml Meßzylinder des Schütt-Stampf-Volumeters (Erweka SVM 22, Ser. Nr. 108.480.446) gefüllt und die Masse bestimmt (Schüttgewicht). Anschließend wurde der Meßzylinder 1250 Stampfvorgängen ausgesetzt, und das Stampfvolumen wurde abgelesen. Die Werte für die Schütt- bzw. Stampfdichte erhält man durch Division der Einwaage durch die jeweiligen Volumenwerte. Die Bestimmung wurde dreifach durchgeführt und aus den Einzelergebnissen jeweils der Mittelwert gebildet. Die Löslichkeit wurde bei Zimmertemperatur (25°C) bei verschiedenen pH-Werten untersucht, indem festes Material in den jeweiligen Medien durch Ultraschall und Schütteln soweit als möglich gelöst wurde. Die Proben wurden filtriert und über HPLC analysiert und mittels UV-Detektion vermessen.
Auf folgende Art und Weise wurde die Schüttdichte und die Stampfdichte des nach Beispiel 1 hergestellten Zinksalzes des (-)-Enantiomers des Omeprazols bestimmt und mit den auf entsprechende Art und Weise bestimmten Werten des Magnesiumsalzes des (-)-Enantiomers des Omeprazols verglichen. Das Magnesiumsalz des (-)-Enantiomers des Omeprazols wurde entsprechend der Offenbarung der WO 94/27988 hergestellt.
Zur Bestimmung der Schüttdichte wurden jeweils 250 ml Substanz möglichst erschütterungsfrei in einen 250 ml Meßzylinder des Schütt-Stampf-Volumeters (Erweka SVM 22, Ser. Nr. 108.480.446) gefüllt und die Masse bestimmt (Schüttgewicht). Anschließend wurde der Meßzylinder 1250 Stampfvorgängen ausgesetzt, und das Stampfvolumen wurde abgelesen. Die Werte für die Schütt- bzw. Stampfdichte erhält man durch Division der Einwaage durch die jeweiligen Volumenwerte. Die Bestimmung wurde dreifach durchgeführt und aus den Einzelergebnissen jeweils der Mittelwert gebildet. Tabelle 1

Data set [2] in a line: Water content by Karl Fischer titration (Ph.Eur. 2.5.32). As to conditions: oven temperature 130 °C. From the text:
Während das Magnesiumsalz als Trihydrat vorliegt und daher per se einen erheblichen Wassergehalt von etwa 6,23% aufweist, ist der Wassergehalt des Zinksalzes des (-)-Enantiomers des Omeprazols ausgesprochen gering und liegt bei nur etwa 0,8%, was ebenfalls einen überraschenden Vorteil des Zinksalzes des (-)-Enantiomers des Omeprazols ausmacht. Diese Messungen erfolgten mittels Karl-Fischer-Titration gemäß Ph.Eur. 2.5.32 mit dem Gerät Aqua 40.00 (Fa. ECH Halle). Das Gerät war ausgestattet mit einem Ausheizofen für Feststoffproben. Die Ausheiztemperatur für die untersuchte substanz betrug 130 °C: Als KF-Reagenz wurde eingesetzt Hydranal (Coulomat AG, Riedel-de Haen. Als Standard wurde verwendet Natriumtartrat-dihydrat (Apura, Merck).

A short description of data set [3]: Solubility of saturated solutions in aqueous media, HPLC/UV. As to conditions: for solubility thermodynamic at 0.5 h: saturated solution, n=1, 30 min ultrasound, read-out: Löslichkeit; for Löslichkeit: 0.5 h. As for the experimental part:
as §1
Die Löslichkeit des Zinksalzes des (-)-Enantiomers des Omeprazols und des Magnesiumsalzes des (-)-Enantiomers des Omeprazols wurde wie folgt bestimmt. In den unten aufgeführten Medien wurden gesättigte Lösungen (n=1) hergestellt, die nach 30 Minuten Ultraschallbehandlung noch einen deutlichen Bodensatz zeigten. Der Überstand der gesättigten Lösungen wurde über einen Membranfilter (0,45µm, Millex HV 25 mm, Millipore) filtriert und die klare Lösung mittels einer HPLC-Methode auf den Gehalt des gelösten Salzes untersucht. (Reversed Phase Chromatographie, Gradientenmodus, Säule: Luna C18(2), 150 x 3 mm, Phenomenex, Eluent 1: 10mM Tris-(hydroxymethyl)-aminomethan-Puffer pH 9.0, Eluent 2 : Acetonitril).
Das Zinksalz des (-)-Enantiomers des Omeprazols wurde gemäß Beispiel 1 vorstehend hergestellt, das Magnesiumsalz des (-)-Enantiomers des Omeprazols gemäß der Offenbarung der WO 94/27988.

Values after ≈ are worked out from the molar mass of the structure shown. Where two headings read alike, the source gives them in different places.

Turning to `COc1ccc2nc([S@@+]([O-])Cc3ncc(C)c(OC)c3C)[nH]c2c1` [Magnesiumsalz des (-)-Enantiomers des Omeprazols], in data set [1], the Stampfdichte is 242,68 g/l. Besides, the Schüttdichte in data set [1] is given as 199,00 g/l. Moreover, the Wassergehalt in data set [2] is listed as ~6,23%. The solubility thermodynamic at 0.5 h in data set [3] (demineralised water, dem. Wasser) was determined as 930 µg/mL (≈ 2690 µM); in data set [3] (usp buffer, pH 6, aqueous buffer, USP-Puffer pH 6,0) it was 780 µg/mL (≈ 2260 µM); in data set [3] (usp buffer, pH 6, aqueous buffer, USP-Puffer pH 6,8), 900 µg/mL (≈ 2610 µM); in data set [3] (usp buffer, pH 7, aqueous buffer, USP-Puffer pH 7,4) it was 890 µg/mL (≈ 2580 µM).
For “Zinksalz des (-)-Enantiomers von Omeprazol [Zinksalz des (-)-Enantiomers des Omeprazols]”, the Stampfdichte in data set [1] is listed as 481,59 g/l. Moreover, in data set [1], the Schüttdichte is on record as 415,62 g/l. The Wassergehalt in data set [2] is recorded as ~0,8%. The Löslichkeit in data set [3] (demineralised water) is on record as 0,02 mg/ml; in data set [3] (usp buffer, pH 6), 0,07 mg/ml; in data set [3] (usp buffer, pH 7), 0,04 mg/ml.

Source of the values: EP1726305A1, “Zinc salt of omeprazole and its enantiomers” (Ratiopharm GmbH, priority 2005, dated 2006).
